Experimental data from US8969388B1, “Substituted pyrazolone compounds and methods of use” (Calitor Sciences, LLC, priority 2012, dated 2015).
Read-outs that look alike come from different tables or passages of the source.

Legend:
c-Met (h) = target: T1, c-Met (h) (Homo sapiens, UniProt P08581); assay: c-Met (h) kinase assay (IC50); type: biochemical; conditions: cells marked (IC50) in the Kd table
T1 construct: host or cells: E. coli BL21-derived host (T7 phage) or HEK-293
Experimental: (§1) The above assay procedure can be used to determine the IC50 for inhibition and/or the inhibition constant, Ki. The IC50 is defined as the concentration of compound required to reduce the enzyme activity by 50% under the condition of the assay. The IC50 value is estimated by preparing a 10 point curve using a ½ log dilution series (for example, a typical curve may be prepared using the following compound concentrations; 100 μM, 30 μM, 10 μM, 3 μM, 1 μM, 0.3 μM, 0.1 μM, 0.03 μM, 0.01 μM and 0 μM).
(§2) (specific activity approx. 500 cpm/pmol, concentration as required).
(§3) The kinase assays described herein can be performed at Millipore UK Ltd, Dundee Technology Park, Dundee DD2 1SW, UK c-Met (h) Assay.

KDR (h) = target: T2, KDR (h) (Homo sapiens, UniProt P35968); assay: KDR (h) (VEGF-R2 (h)) kinase assay (IC50); type: biochemical; conditions: cells marked (IC50) in the Kd table
T2 construct: host or cells: E. coli BL21-derived host (T7 phage) or HEK-293
Experimental: as §1
KDR (h) (VEGF-R2 (h)) Assay
as §2, §3

[1] = Pharmacokinetics after intravenous and oral administration in rats; type: in vivo; conditions: for F: oral bioavailability, oral dose not given; for AUC(0-t) / half-life / Vd: rat, plasma; for clearance (CL) after iv dosing / AUC(0-t) / half-life / Vd: iv dosing; for Vd: read-out: Vss
Experimental: The compounds disclosed herein are assessed in pharmacokinetic studies in mice, rats, dogs or monkeys. The compounds are administered as a water solution, 2% HPMC+1% TWEEN®80 in water solution, 5% DMSO+5% solutol in saline, 4% MC suspension or capsule. For the intravenous administration, the animals are generally given at 1 or 2 mg/kg dose. For the oral (p.o.) dosing, mice and rats are generally given 5 or 10 mg/kg dose, and dogs and monkeys are generally given 10 mg/kg dose. The blood samples (0.3 mL) are drawn at 0.25, 0.5, 1.0, 2.0, 3.0, 4.0, 6.0, 8.0, 12 and 24 h time points or 0.083, 0.25, 0.5, 1.0, 2.0, 4.0, 6.0, 8.0 and 24 h time points and centrifuged at 3,000 or 4000 rpm for 2 to 10 min. The plasma solutions are collected, stored at −20° C. or −70° C. until analyzed by LC/MS/MS as described above.

T2 sequence (P35968 20-1356): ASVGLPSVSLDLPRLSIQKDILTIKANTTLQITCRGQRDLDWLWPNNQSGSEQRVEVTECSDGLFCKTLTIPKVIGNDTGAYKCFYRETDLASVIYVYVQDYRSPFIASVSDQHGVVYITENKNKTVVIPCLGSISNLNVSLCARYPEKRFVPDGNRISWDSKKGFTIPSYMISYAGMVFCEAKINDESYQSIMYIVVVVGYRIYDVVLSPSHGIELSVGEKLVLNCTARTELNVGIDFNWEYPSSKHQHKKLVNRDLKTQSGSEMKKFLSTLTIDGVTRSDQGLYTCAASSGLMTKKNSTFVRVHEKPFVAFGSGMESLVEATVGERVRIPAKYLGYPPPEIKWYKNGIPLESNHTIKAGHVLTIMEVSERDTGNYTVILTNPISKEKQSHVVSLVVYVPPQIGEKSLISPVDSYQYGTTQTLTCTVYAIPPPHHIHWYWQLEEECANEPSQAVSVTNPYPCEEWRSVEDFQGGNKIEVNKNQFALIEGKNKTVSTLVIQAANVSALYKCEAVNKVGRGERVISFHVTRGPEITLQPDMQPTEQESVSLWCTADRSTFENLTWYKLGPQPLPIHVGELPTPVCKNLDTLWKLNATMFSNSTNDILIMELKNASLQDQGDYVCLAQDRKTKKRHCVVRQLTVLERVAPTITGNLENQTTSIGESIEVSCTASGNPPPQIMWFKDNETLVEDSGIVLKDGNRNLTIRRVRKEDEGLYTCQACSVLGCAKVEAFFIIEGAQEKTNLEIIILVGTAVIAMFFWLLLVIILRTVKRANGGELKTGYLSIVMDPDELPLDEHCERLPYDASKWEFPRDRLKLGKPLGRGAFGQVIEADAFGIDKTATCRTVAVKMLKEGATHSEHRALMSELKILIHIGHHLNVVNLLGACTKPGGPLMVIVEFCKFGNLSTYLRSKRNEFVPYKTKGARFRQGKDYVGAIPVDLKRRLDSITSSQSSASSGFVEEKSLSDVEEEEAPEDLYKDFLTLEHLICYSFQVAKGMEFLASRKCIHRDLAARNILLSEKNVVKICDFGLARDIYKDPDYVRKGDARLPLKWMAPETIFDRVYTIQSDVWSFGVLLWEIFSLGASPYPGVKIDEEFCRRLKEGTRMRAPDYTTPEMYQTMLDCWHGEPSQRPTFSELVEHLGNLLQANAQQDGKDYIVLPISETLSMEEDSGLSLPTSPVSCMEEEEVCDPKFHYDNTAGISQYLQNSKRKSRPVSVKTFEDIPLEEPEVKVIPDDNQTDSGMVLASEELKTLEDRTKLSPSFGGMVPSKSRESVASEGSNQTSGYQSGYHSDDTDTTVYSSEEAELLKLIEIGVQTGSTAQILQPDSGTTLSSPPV
T1 sequence (P08581 25-1390): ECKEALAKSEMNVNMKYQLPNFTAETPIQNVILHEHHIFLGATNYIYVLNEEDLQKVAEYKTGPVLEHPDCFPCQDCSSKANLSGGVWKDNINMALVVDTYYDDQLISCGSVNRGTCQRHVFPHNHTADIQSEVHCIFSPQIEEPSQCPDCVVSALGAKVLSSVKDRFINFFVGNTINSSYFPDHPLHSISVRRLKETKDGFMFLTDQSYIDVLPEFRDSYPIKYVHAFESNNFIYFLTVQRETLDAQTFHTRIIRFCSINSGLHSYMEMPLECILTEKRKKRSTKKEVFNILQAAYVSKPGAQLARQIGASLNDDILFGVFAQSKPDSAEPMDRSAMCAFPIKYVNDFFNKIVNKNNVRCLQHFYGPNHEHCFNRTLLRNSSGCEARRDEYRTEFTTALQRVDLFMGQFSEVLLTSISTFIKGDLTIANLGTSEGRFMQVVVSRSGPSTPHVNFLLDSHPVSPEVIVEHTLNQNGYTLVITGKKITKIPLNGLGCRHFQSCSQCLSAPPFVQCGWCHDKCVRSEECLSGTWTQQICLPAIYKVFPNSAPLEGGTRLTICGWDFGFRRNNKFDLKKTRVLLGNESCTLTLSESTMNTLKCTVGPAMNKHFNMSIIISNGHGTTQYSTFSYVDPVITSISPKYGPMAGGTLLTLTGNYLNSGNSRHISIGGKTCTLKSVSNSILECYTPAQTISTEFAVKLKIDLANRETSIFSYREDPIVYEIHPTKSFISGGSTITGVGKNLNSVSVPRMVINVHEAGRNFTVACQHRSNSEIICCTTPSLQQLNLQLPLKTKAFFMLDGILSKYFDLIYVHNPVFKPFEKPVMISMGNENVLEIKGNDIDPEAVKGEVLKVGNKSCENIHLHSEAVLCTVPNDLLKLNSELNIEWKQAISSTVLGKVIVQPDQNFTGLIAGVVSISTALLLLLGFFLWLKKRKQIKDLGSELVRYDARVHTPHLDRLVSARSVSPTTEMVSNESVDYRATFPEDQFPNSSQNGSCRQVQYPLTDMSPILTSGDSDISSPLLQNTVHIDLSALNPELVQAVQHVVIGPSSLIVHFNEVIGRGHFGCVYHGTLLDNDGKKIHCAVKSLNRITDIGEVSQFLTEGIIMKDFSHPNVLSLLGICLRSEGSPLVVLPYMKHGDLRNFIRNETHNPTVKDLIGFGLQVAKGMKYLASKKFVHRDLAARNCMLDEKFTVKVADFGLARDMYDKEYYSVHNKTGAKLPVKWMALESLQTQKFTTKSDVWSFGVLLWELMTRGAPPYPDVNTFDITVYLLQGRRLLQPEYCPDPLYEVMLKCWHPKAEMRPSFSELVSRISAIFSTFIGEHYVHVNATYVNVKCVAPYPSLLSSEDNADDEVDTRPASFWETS

SMILES	IC50 (c-Met (h)) [µM]	IC50 (KDR (h)) [µM]	clearance (CL) after iv dosing ([1]; 2 mg/kg) [L/h/kg]	F ([1]; iv dose 2 mg/kg) [%]	AUC(0-t) ([1]; 2 mg/kg) [µg·h/mL]	half-life ([1]; 2 mg/kg) [min]	Vd ([1]; 2 mg/kg) [L/kg]	clearance (CL) after iv dosing ([1]; 1 mg/kg) [L/h/kg]	F ([1]; iv dose 1 mg/kg) [%]	AUC(0-t) ([1]; 1 mg/kg) [µg·h/mL]	half-life ([1]; 1 mg/kg) [min]	Vd ([1]; 1 mg/kg) [L/kg]
Cc1c(C(=O)Nc2ccc(Oc3ccnc(N)c3)c(F)c2)c(=O)n(-c2ccccc2)n1C [Ex. 22, N-(4-((2-aminopyridin-4-yl)oxy)-3-fluorophenyl)-1,5-dimethyl-3-oxo-2-phenyl-2,3-dihydro-1H-pyrazole-4-carboxamide]	0.084	> 3	0.80	78.1	2.51	43.2	0.56					
Cc1c(C(=O)Nc2ccc(Oc3ccnc(N)c3)cc2)c(=O)n(-c2ccccc2)n1C [Ex. 1, N-(4-((2-aminopyridin-4-yl)oxy)phenyl)-1,5-dimethyl-3-oxo-2-phenyl-2,3-dihydro-1H-pyrazole-4-carboxamide]	0.611	> 3						1.42	31.2	0.706	67.8	0.68
